Experimental data reported in ChEMBL document CHEMBL3507680, “University of Dundee, Gates Library screen for HepG2 cell viability”.

Assay: Human HepG2 cell viability assay in 384 well format
Assay type: toxicity, cell-based
Design: dose 125 nL, time 70.5 hour; cytotoxicity at 70.5 h: concentration not given beside the values
Conditions: HepG2 cells, read-out: Inhibition

| Structure (SMILES) | cytotoxicity at 70.5 h [%] |
| --- | --- |
| Cc1ccc(C(=O)N2CCOC3(CCCC3)C2)c(=O)[nH]1 | -41.7 |
| N#Cc1cccc(Cl)c1NC1CCN(CC(N)=O)CC1 | -106 |
| CNC(=O)c1ccc(CNc2ccncc2Cl)cc1 | -98.3 |
| CN(Cc1cnn(C)c1)C(=O)CCC(=O)c1ccc2c(c1)OCCO2 | -82.6 |
| CCn1c(C)cc(C(=O)N2CCC(Nc3ccc(C)nn3)CC2)c1C | -91.3 |
| CCOc1cc(Cl)ccc1CNC(=O)N(C)CC(C)(C)O | -78.1 |
| CNS(=O)(=O)c1cccc(CNc2ccc(C#N)cn2)c1 | -7.11 |
| COc1cc(CNC(=O)Nc2nnc(C3CC3)s2)ccc1O | -8.51 |
| COc1ncccc1CNC(=O)c1csc(Br)c1 | -8.18 |
| N#CCCN(Cc1ccco1)C(=O)CN1CCCC1c1cccs1 (stereo not given) | 1.44 |
| CN(Cc1ccco1)C(=O)NC(Cn1ccnc1)C(C)(C)C (stereo not given) | -5.15 |
| COc1cc(CNC(=O)c2csc(Br)c2)ccn1 | -12.9 |
| CCc1nnsc1C(=O)NCc1c(C)nn(CCOC)c1C | -7.41 |
| CNS(=O)(=O)Cc1cccc(CNc2ccc(C#N)cn2)c1 | -10.5 |
| O=C1CCN(C(=O)C2(c3ccc(F)cc3)CCCCC2)CCN1 | -8.46 |
| O=C1CCN(C(=O)C2(c3ccc(F)cc3)CCCC2)CCN1 | -5.37 |
| Cc1nnc(C2Cc3ccccc3CN2Cc2nc(C3CC3)no2)o1 (stereo not given) | -5.34 |
| O=C(NCCCN1CCOCC1)C(OC1CCCC1)c1ccccc1 (stereo not given) | -1.75 |
| CCc1nnc2n1CCN(C(=O)c1cnc3c(cnn3C(C)C)c1)C2 | -8.43 |
| CCCn1[nH]cc/c1=N\C(=O)CN1CCCC1Cn1nc(C)nc1C (stereo not given) | -1.59 |
| CCNC(=O)CNS(=O)(=O)Cc1cc(-c2ccccc2)no1 | 2.55 |
| COc1ccc(CNC(=O)N2CCCN(CC3CCCCC3)CC2)cn1 | -5.17 |

| Structure (SMILES) | cytotoxicity at 70.5 h [%] |
| --- | --- |
| COCCOc1ccc(NC(=O)N(C(C)C)C2CC2)cn1 | -3.25 |
| CN(Cc1cc(Br)cn1C)C(=O)c1cc(Cl)ccn1 | 30.9 |
| CC(C(=O)NS(=O)(=O)Cc1cc(-c2ccccc2)no1)C1CC1 (stereo not given) | -1.89 |
| CCNC(=O)CCC(=O)NC(C)Cc1ccccc1Br (stereo not given) | 4.19 |
| Cc1noc(NCc2ccc(F)cc2)n1 | -1.48 |
| CN1CCN(CCNC(=O)C(OC2CCCC2)c2ccccc2)CC1 (stereo not given) | 5.3 |
| COCCOc1ccc(NC(=O)N(CCCO)CC(C)(C)C)cn1 | 21.2 |
| CCCn1[nH]cc/c1=N\C(=O)CN1CCCC1Cn1cccn1 (stereo not given) | -6.25 |
| Cc1nc2n(n1)CC(NCc1nnc(C(C)(C)C)o1)CC2 (stereo not given) | -6.83 |
| CC(Cn1ccnc1)NC(=O)N(C)Cc1ccco1 (stereo not given) | -2.84 |
| CCc1nnc(C2Cc3ccccc3CN2Cc2cc(C)no2)o1 (stereo not given) | -4.33 |
| CCN(CC)c1ccc(CNC(=O)c2cnccn2)cn1 | 18 |
| CCN(CC)c1ccc(CNC(=O)c2ccc(=O)[nH]n2)cn1 | -13.1 |
| O=C(c1cc(C2CC2)[nH]n1)N1CCN(c2nccs2)CC1 | -11.6 |
| O=C(c1ccoc1)N1CCC(NCc2cccnc2)CC1 | 4.06 |
| CCS(=O)(=O)N1CCC(Nc2ccc(C#N)cc2F)CC1 | -10.9 |
| CC(NC(=O)CN1C=Nc2ccccc2S1(=O)=O)c1ccccc1 (stereo not given) | -9.29 |
| Cc1ccc(CNC(=O)N2CCN(S(C)(=O)=O)CC2)n1C | -6.21 |
| Cc1nc(S(=O)(=O)NCCC(=O)NCc2ccsc2)cn1C | -6.68 |
| Fc1ccccc1CN1CCC(c2n[nH]c(C3CC3)n2)CC1 | -5.65 |
| c1cc(CCN2CCC(c3n[nH]c(C4CC4)n3)CC2)ccn1 | 11.7 |
| Cc1ccc(CNC(=O)C2CCN(C(=O)C(C)C)CC2)n1C | -9.28 |

| Structure (SMILES) | cytotoxicity at 70.5 h [%] |
| --- | --- |
| CCNc1cc2c(nn1)CCN(C(=O)Cc1ccc3c(c1)CCO3)C2 | -7.37 |
| Cc1nc(-c2cnn(C)c2)sc1C(=O)NCc1ccc(C)n1C | -2.82 |
| O=C(Nc1ccccc1F)N(CCO)CCOCC(F)(F)F | -4.12 |
| CCOC(=O)c1ccc(CNC(=O)c2ccon2)o1 | 14.2 |
| O=C(CCn1cccn1)NS(=O)(=O)N1CCCc2ccccc21 | -8.67 |
| CCOC(=O)c1ccc(CNC(=O)c2ccc(Cl)cn2)o1 | -6.63 |
| Cn1cc(C2(C)CN(c3ncccc3C#N)CCO2)cn1 (stereo not given) | 3.03 |
| Cc1c(NC(C)C(C)C)cccc1C(=O)NCc1ccnn1C (stereo not given) | 4.31 |
| Cn1cc(C(=O)N2CCCC2CCc2ccccc2)cn1 (stereo not given) | -9.35 |
| Cc1nc(-c2cnn(C)c2)sc1C(=O)NCc1cccc(CN(C)C)c1 | -6.53 |
| CCc1cc(NC(=O)N2CCC(Oc3cccnc3)C2)n(C)n1 (stereo not given) | -6.65 |
| Cc1nnc(NCC(c2ccco2)N2CCCC2)c(C#N)c1C (stereo not given) | 3.51 |
| O=C(CS(=O)(=O)c1ccccn1)NC1CCCc2ccccc21 (stereo not given) | 1 |
| O=C(NCCc1cccs1)NC1CCN(c2ncccn2)CC1 | -6.98 |
| CS(=O)(=O)NCC1CCCN(C(=O)Nc2ccccc2F)C1 (stereo not given) | 1.05 |
| CS(=O)(=O)NCC1CCCN(C(=O)Nc2cccc3ccccc23)C1 (stereo not given) | -3.21 |
| O=C(c1cccc(-n2cnnn2)c1)N1CCC2(CC1)OCCO2 | -7.02 |
| Cc1nc(CNC(=O)NC2CCN(c3ncccn3)CC2)cs1 | -6.89 |
| CCS(=O)(=O)CC(=O)NC(c1ccccc1)C1CCCC1 (stereo not given) | 0.476 |
| CCCN(CC(F)F)C(=O)CCc1c(C)nc2cc(O)nn2c1C | 23.2 |
| Cc1ccc(-n2cc(C(=O)N3CCn4c(C)nnc4C3)nn2)cc1 | 26.8 |
| Cc1cc(C(=O)N2CCC(Nc3cccnc3)CC2)c(C)s1 | 2.17 |

| Structure (SMILES) | cytotoxicity at 70.5 h [%] |
| --- | --- |
| COc1cc(C(=O)N2CCC(Nc3cccnc3)CC2)ccc1C | 6.09 |
| Cc1nn(C)c(C)c1CNCc1cccnc1N1CCOCC1 | -7.44 |
| O=C(Cc1ccc2c(c1)CCO2)N1CCCC1Cn1cccn1 (stereo not given) | -4.67 |
| O=C(CS(=O)(=O)C1CCCC1)NC(c1ccc(F)cc1)C1CC1 (stereo not given) | 1.6 |
| N#Cc1ncn(CCC(=O)Nc2ccccc2F)n1 | -0.493 |
| Cc1ccc(C(=O)N2CCN(CCCSCC#N)CC2)cc1F | -7.64 |
| COCC(=O)N(C)Cc1ccc(F)c(F)c1 | 28.3 |
| Cc1ccc(CC(=O)N2CCCCC2Cn2cccn2)cn1 (stereo not given) | -0.224 |
| Cc1cnn(CC2CCCN2C(=O)Cc2ccc3c(c2)CCO3)c1 (stereo not given) | -7.32 |
| Cc1nc(C)c(C(=O)Nc2cccc(CN3CCC(CO)CC3)c2)o1 | 0.852 |
| CN(CCN1CCOCC1)C(=O)CCc1ccc(C(F)(F)F)cc1 | 10.6 |
| NS(=O)(=O)c1ccc(CNC(=O)c2ccc(Cl)cc2F)cc1 | 5.61 |
| O=C(NCc1ccncc1)c1ccc(Cl)cc1F | 4.94 |
| Cc1ccc(Cl)cc1NC(=O)C1CC(=O)N(Cc2ccccn2)C1 (stereo not given) | 8.15 |
| O=C(Nc1cccc(C(F)(F)F)c1)C1CC(=O)N(Cc2ccccn2)C1 (stereo not given) | 34.8 |
| O=C(NCc1ccccc1F)NC1CCCN(c2ncccn2)C1 (stereo not given) | -4.69 |
| CN(C)C(=O)Cc1ccc(NC(=O)NC2CC2)cc1 | -3.59 |
| Cc1nn(CC(=O)N2CCN(c3cnccn3)CC2)c(C)c1Cl | -9.18 |
| Cc1nn(CC(=O)N2CCN(c3ncccn3)CC2)c(C)c1Cl | 21.2 |
